The source of these data is patent publication US8211909B2, “Treatment of antibiotic-resistant bacteria infection” (TaiGen Biotechnology Co., Ltd., priority 2008, dated 2012).

Values after ≈ are worked out from the molar mass of the structure shown. Where two headings read alike, the source gives them in different places.

For assay [1], the system named is Methicillin-resistant Staphylococcus aureus (MRSA) isolates. The assay can be described thus: MIC by broth microdilution (CLSI) against CAN-ICU MRSA isolates. Format: cell-based. The settings on record: Staphylococcus aureus; for MIC50: read-out: MIC50; for MIC90: read-out: MIC90. An excerpt:
MRSA isolates (n=193) were obtained as part of the Canadian National Intensive Care Unit (CAN-ICU) Study. 19 medical centers from all regions of Canada with active ICUs participated in the CAN-ICU study included. They were requested to only obtain “clinically significant” specimens from patients with a presumed infectious disease. Surveillance swabs, eye, ear, nose and throat swabs were excluded. Anaerobic organisms and fungal organisms were also excluded.
From September 2005-June 2006 (inclusive), each center collected a maximum of 300 consecutive pathogens isolated from blood, urine, tissue/wound, and respiratory specimens (one pathogen per cultured site per patient) of ICU patients. These isolates were shipped to the reference laboratory (Health Sciences Centre, Winnipeg, Canada) on Amies charcoal swabs, subcultured in appropriate media, and stocked in skim milk at −80° C.
All isolates underwent mecA PCR, as well as molecular characterization (including PVL analysis and fingerprinting), as previously described, to assess whether they were community-associated or healthcare-associated (Christianson et al., J Clin Microbiol. 2007, 45 (6): 1904-11; Mulvey et al., J Clin. Microbiol. 2001, 39(10): 3481-5; Mulvey et al., Emerg Infect Dis. 2005,11(6): 844-50; Oliveira et al., Antimicrob Agents Chemother. 2002, 46(7): 2155-61). The isolates were also subtyped using pulsed-field gel electrophoresis (PFGE) following the Canadian standardized protocol as previously described (Mulvey et al., J Clin Microbiol. 2001, 39(10): 3481-5). Their PFGE fingerprints thus obtained were analyzed with BioNumerics v3.5 (Applied Maths St. Marten-Latem, Belgium) using a position tolerance of 1.0 and an optimization of 1.0. Strain relatedness was determined as previously described (Tenover et al., 1995). The fingerprints of the isolates were compared to the national MRSA fingerprint database and were grouped into one of 10 Canadian epidemic MRSA (CMRSA-1, CMRSA-2, etc) as previously described (Mulvey et al., Emerg Infect Dis. 2005,11(6):844-50).
Compound 1 and other antibiotics were tested for their inhibitory activity against the MRSA isolates using the broth microdilution guidelines as stipulated by the Clinical and Laboratory Standards Institute.
(In general: Dilution methods test growth across graded concentrations, often in twofold steps.)

In the next assay the test system is H. pylori isolates. The assay can be described thus: MIC by agar dilution against 200 H. pylori isolates (Taiwan). The assay is classed as cell-based, Helicobacter pylori. Particulars: for share of isolates resistant: 200 H. pylori isolates, resistance: amoxicillin MICs≧0.5, clarithromycin ≧1, metronidazole ≧8, ciprofloxacin ≧1, levofloxacin ≧1 μg/mL; for MIC50 / MIC90: Helicobacter pylori, 200 isolates of H. pylori. On the procedure: MICs were determined using the agar dilution methods recommended by the Clinical and Laboratory Standards Institute (CLSI-M100-S18).

The subject of assay [2] is methicillin-resistant Staphylococcus aureus. The assay can be described thus: MIC by broth microdilution, Taiwan clinical isolates (Compound 1′). The settings on record: for MIC50 / MIC90: Staphylococcus aureus, MRSA. Format: cell-based. As to the method:
(§1) The Staphylococcus aureus and Streptococcus pneumoniae isolates were obtained by 10 medical centers in all regions of Taiwan. MICs were determined using the broth microdilution method.

The test system of assay [3] is methicillin-resistant Streptococcus pneumoniae. The description is as above. The settings on record: for MIC50 / MIC90: Streptococcus pneumoniae. Format: cell-based. On the procedure: as §1
Assay [4] concerns Staphylococcus aureus strains (MRSA, hVISA, VISA, VRSA, quinolone-resistant MRSA). The assay can be described thus: MIC by agar dilution against Staphylococcal strains (MRSA, hVISA, VISA, VRSA, quinolone-resistant MRSA). The settings on record: Staphylococcus aureus. Format: cell-based. On the procedure:
Compound 1 was tested for its inhibitory effect against 26 Methicillin-resistant Staphylococcus aureus (MRSA) strains, 2 hetero-Vancomycin intermediate Staphylococcus aureus (hVISA) strains, 24 Vancomycin-intermediate Staphylococcus aureus (VISA) strains, 5 Vancomycin-resistant Staphylococcus aureus (VRSA) strains, and 31 quinolone-resistant Vancomycin-susceptibale MRSA strains with defined mutations in QRDR. These mutations were determined by sequencing analysis of the QRDR (gyrA, gyrB, grlA, and grlB). Efflux testing was performed by the reserpine method (Brenwald, et al., Antimicrob. Agents Chemother. 1998, 42: 2032-2035).
(In general: Agar dilution tests growth on a series of plates holding different concentrations.)

The next assay has as its system S. pneumoniae. The assay can be described thus: CANWARD 2007 gram-positive cocci, CLSI broth microdilution. The assay is classed as cell-based, Streptococcus pneumoniae. Set-up: MIC50 / MIC90: unit not given here. On the procedure:
(§2) From January-December 2007, 12 hospitals across Canada submitted isolates from patients attending hospital clinics, emergency rooms, medical and surgical wards, and intensive care units. 7881 isolates (CANWARD 2007) were collected including 3473 gram-positive cocci. Susceptibility testing for Compound 1 and Levofloxacin was performed using the Clinical and Laboratory Standards Institute broth microdilution.

Assay [5] concerns S. aureus (MSSA, CA-MRSA, HA-MRSA, VISA, VRSA). The assay can be described thus: CANWARD 2007 / NARSA gram-positive cocci, CLSI broth microdilution. Format: cell-based, Staphylococcus aureus. More on the design: MIC50 / MIC90: unit not given here. On the procedure: as §2
Assay [6] has as its system Staphylococcus epidermidis (MSSE, MRSE). The assay can be described thus: CANWARD 2007 gram-positive cocci, CLSI broth microdilution. The assay is classed as cell-based. More on the design: MIC50 / MIC90: unit not given beside the values. As to the method:
as §2

The test system of a further assay is E. faecalis. The description is as above. The assay is classed as cell-based. Particulars: E. faecalis (81). More on the design: unit not given beside the values. On the procedure:
as §2

Setting [7] is: MRSA (n = 193), read-out: MIC Range Max.
Where [8] appears, read: MRSA (n = 193), read-out: MIC Range Min.
The mark [9] stands for this setting: MRSA-CIP (R): MRSA-ciprofloxacin resistant strain.
The mark [10] stands for this setting: MRSA-CIP (S): MRSA-ciprofloxacin sensitive strain.
Where [11] appears, read: MRSP-Levo (R): Levofloxacin resistant strain.
Where [12] appears, read: MRSP-Levo (S): Levofloxacin sensitive strain.
The mark [13] stands for this setting: MRSA / USA100, USA 100/800 (HA-MRSA).
[14] abbreviates: MRSA / USA200, USA 200 (HA-MRSA).
Setting [15] is: MRSA / USA300, USA 300 (CA-MRSA).
Where [16] appears, read: MRSA / USA400, USA 400 (CA-MRSA).
The mark [17] stands for this setting: MRSA / USA600, USA 600 (HA-MRSA).
[18] abbreviates: hVISA(2) + VISA (24) + VRSA (5).

As usually defined, the MIC is the smallest concentration in the dilution series that meets the test's criterion for growth inhibition. Consider `CC[C@H]1OC(=O)[C@H](C)[C@@H](O[C@H]2C[C@@](C)(OC)[C@@H](O)[C@H](C)O2)[C@H](C)[C@@H](O[C@@H]2O[C@H](C)C[C@H](N(C)C)[C@H]2O)[C@](C)(OC)C[C@@H](C)C(=O)[C@H](C)[C@@H](O)[C@]1(C)O` [Clarithromycin], for which, in [1] (MRSA (n = 193)), the MIC50 was greater than 32 µg/mL and the MIC90 was greater than 32 µg/mL. For the same molecule, the MIC in [1] (setting [7]) was greater than 32 µg/mL. Also, the MIC in assay [1] (setting [8]) was determined as 0.25 µg/mL (≈ 0.334 µM). In addition, in the assay on H. pylori isolates, the “share of isolates resistant” value was 6%.
As to `COc1c(N2C[C@H](C)C[C@H](N)C2)ccc2c(=O)c(C(=O)O)cn(C3CC3)c12` [Compound 1′, (3S,5R)-7-[3-amino-5-methyl-piperidinyl]-1-cyclopropyl-1,4-dihydro-8-methoxy-4-oxo-3-quinolinecarboxylic acid], the MIC50 in [2] (setting [9]) was 1 µg/mL (≈ 2.69 µM); in assay [2] (setting [10]) it was 0.03 µg/mL (≈ 0.0808 µM); in assay [3] (setting [11]) it was 0.25 µg/mL (≈ 0.673 µM); in assay [3] (setting [12]), 0.03 µg/mL (≈ 0.0808 µM). Also, the MIC90 turned out to be 1 µg/mL (≈ 2.69 µM) in assay [2] (setting [9]), 0.06 µg/mL (≈ 0.162 µM) in assay [2] (setting [10]), 1 µg/mL (≈ 2.69 µM) in assay [3] (setting [11]) and 0.06 µg/mL (≈ 0.162 µM) in assay [3] (setting [12]). In addition, the “inhibition (in words)” value in [2] (methicillin-resistant Staphylococcus aureus) and in assay [3] (methicillin-resistant Streptococcus pneumoniae) was “effective” each time.
`C[C@H]1COc2c(N3CCN(C)CC3)c(F)cc3c(=O)c(C(=O)O)cn1c23` [Levofloxacin]: the MIC50 in assay [1] (setting [13]) is greater than 32 µg/mL; in [1] (setting [14]), 32 µg/mL (≈ 88.6 µM); in [1] (setting [15]), 8 µg/mL (≈ 22.1 µM); in [1] (setting [16]), 0.25 µg/mL (≈ 0.692 µM); in assay [1] (setting [17]) it was 32 µg/mL (≈ 88.6 µM); in assay [1] (MRSA (n = 193)), greater than 32 µg/mL. Moreover, the MIC50 in [4] (MRSA (26)) was 0.25 µg/mL (≈ 0.692 µM); in assay [4] (Quinolone-resistant MRSA (31)), 16 µg/mL (≈ 44.3 µM); in assay [4] (setting [18]), 16 µg/mL; in the assay with S. pneumoniae (SPN CipR (29)), 2; in the assay on S. pneumoniae (SPN PenI (103)) it was 0.5; in the assay with S. pneumoniae (SPN PenR (34)), 0.5. The MIC50 against S. pneumoniae (SPN PenS (519)) was 0.5; in the assay with S. pneumoniae (SPN-All (656)) it was 0.5; in [5] (CA-MRSA (23)) it was 4; in [5] (HA-MRSA (91)) it was >32/>32; in [5] (MSSA (372)), 0.25; in assay [5] (VISA (12), NARSA isolates), 32/>32. For the same molecule, the MIC50 in assay [6] (MRSE (9)) was >32/>32; in assay [6] (MSSE (32)) it was 4; in the assay on E. faecalis it was 2; with H. pylori isolates it was 250 µg/mL (≈ 692 µM). Besides, the MIC90 in assay [1] (setting [13]) is greater than 32 µg/mL; in assay [1] (setting [14]), greater than 32 µg/mL; in [1] (setting [15]) it was 8 µg/mL (≈ 22.1 µM); in assay [1] (setting [16]) it was 0.25 µg/mL (≈ 0.692 µM); in [1] (setting [17]) it was greater than 32 µg/mL; in [1] (MRSA (n = 193)), greater than 32 µg/mL. In addition, the MIC90 in assay [4] (MRSA (26)) turned out to be 0.5 µg/mL (≈ 1.38 µM); in assay [4] (Quinolone-resistant MRSA (31)) it was 32 µg/mL (≈ 88.6 µM); in assay [4] (setting [18]), 32 µg/mL; against S. pneumoniae (SPN CipR (29)), 16; against S. pneumoniae (SPN PenI (103)), 1; in the assay with S. pneumoniae (SPN PenR (34)), 2. Also, the MIC90 against S. pneumoniae (SPN PenS (519)) is recorded as 1; in the assay on S. pneumoniae (SPN-All (656)) it was 1; in assay [5] (CA-MRSA (23)) it was 8; in assay [5] (HA-MRSA (91)) it was >32/>32; in assay [5] (MSSA (372)), 4; in assay [5] (VISA (12), NARSA isolates), 32/>32. For the same molecule, the MIC90 in assay [6] (MRSE (9)) is >32/>32; in assay [6] (MSSE (32)), greater than 32; against E. faecalis it was greater than 32; against H. pylori isolates, 500 µg/mL (≈ 1380 µM). Also, the MIC is greater than 32 µg/mL in assay [1] (setting [7]); 0.25 µg/mL (≈ 0.692 µM) in assay [1] (setting [8]); 0.25 to 1 µg/mL (≈ 0.692 to 2.77 µM) in assay [4] (read-out: MIC Range, MRSA (26)). In [5] (VRSA (7), NARSA isolates), the “median MIC (single value under head MIC50/MIC90)” value was 32. Moreover, the “share of isolates resistant” value in the assay with H. pylori isolates was determined as 2%. Besides, the “MIC50/MIC90 (single value printed)” value in [3] (MRSP-Levo (R)) is greater than 128 µg/mL; in [3] (MRSP-Levo (S)) it was 16 µg/mL (≈ 44.3 µM).
`COc1c(N2C[C@@H]3CCCN[C@@H]3C2)c(F)cc2c(=O)c(C(=O)O)cn(C3CC3)c12` [Moxifloxacin]: the MIC50 came to 0.06 µg/mL (≈ 0.149 µM) in assay [4] (MRSA (26)), 4 µg/mL (≈ 9.96 µM) in assay [4] (Quinolone-resistant MRSA (31)), 4 µg/mL in assay [4] (setting [18]) and 250 µg/mL (≈ 623 µM) against H. pylori isolates. Moreover, the MIC90 in [4] (MRSA (26)) was 0.06 µg/mL (≈ 0.149 µM); in assay [4] (Quinolone-resistant MRSA (31)) it was 8 µg/mL (≈ 19.9 µM); in [4] (setting [18]), 8 µg/mL; against H. pylori isolates, 500 µg/mL (≈ 1250 µM). Besides, the MIC in assay [4] (read-out: MIC Range, MRSA (26)) was in the range of 0.03 to 0.25 µg/mL (≈ 0.0747 to 0.623 µM); in [4] (read-out: MIC Range, Quinolone-resistant MRSA (31)) it was 1 to 8 µg/mL (≈ 2.49 to 19.9 µM); in [4] (read-out: MIC Range, hVISA(2) + VISA (24) + VRSA (5)), 0.06 to 8 µg/mL.
